The structures appear in SMILES notation. pKi: −log10 of the molar value.

For the test, the target named is T1, CDK4/cyclin D3 (Homo sapiens, UniProt P11802).
T1 construct: made in house; host or cells: insect cells (baculovirus co-infection)
Description: Inhibition of CDK4/Cyclin D retinoblastoma kinase activity.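 For % Inhib CDK4/D @ 1 μM: relative to DMSO control wells without compound minus no-enzyme background.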 Type of test: biochemical. The note with it: for inhibition at 0.1 µM / % Inhib CDK4/D @ 0.1 μM: test compound at 0.1 μM; for inhibition at 0.1 µM: read-out: % Inhib CDK4/D @ 0.1 μM; for % Inhib CDK4/D @ 1 μM / inhibition at 1 µM: test compound at 1 μM (head line shifted: 'mM' printed beside 'Structure'); for % Inhib CDK4/D @ 0.03 / inhibition at 0.03 µM: test compound at 0.03 (unit cell empty, head line shifted; μM); for inhibition at 1 µM: read-out: % Inhib CDK4/D @ 1 μM; for inhibition at 0.03 µM: read-out: % Inhib CDK4/D @ 0.03. Put shortly: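 Human CDK4 with truncated cyclin D3 (1-264) from baculovirus-infected insect cells, 5 nM, phosphorylating His-tagged Rb fragment (386-928) with 25 μM [32P/33P]ATP in pH 7.4 HEPES/MgCl2, 2% DMSO, 30° C., 20 min (60 min for tight binders). Filter capture, phosphorimager; apparent Ki from competitive or tight-binding competitive fits.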

T1 sequence (P11802 whole entry): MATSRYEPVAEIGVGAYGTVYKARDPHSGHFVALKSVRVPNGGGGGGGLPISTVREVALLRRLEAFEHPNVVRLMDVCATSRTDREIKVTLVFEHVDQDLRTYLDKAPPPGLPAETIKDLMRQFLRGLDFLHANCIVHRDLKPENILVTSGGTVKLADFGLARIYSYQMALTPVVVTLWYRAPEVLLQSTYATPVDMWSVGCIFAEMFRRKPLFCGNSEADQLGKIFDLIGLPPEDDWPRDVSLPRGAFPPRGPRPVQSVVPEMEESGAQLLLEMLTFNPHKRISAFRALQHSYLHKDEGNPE
T1 sequence (P30281 1-264 partner limits assumed): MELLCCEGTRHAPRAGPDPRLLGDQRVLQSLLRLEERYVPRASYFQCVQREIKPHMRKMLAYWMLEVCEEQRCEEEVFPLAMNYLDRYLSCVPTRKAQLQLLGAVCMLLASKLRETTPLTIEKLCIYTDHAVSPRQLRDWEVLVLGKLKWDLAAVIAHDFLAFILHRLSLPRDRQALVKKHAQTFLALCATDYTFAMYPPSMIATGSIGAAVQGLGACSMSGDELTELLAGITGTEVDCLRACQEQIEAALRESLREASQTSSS

For `Nc1nc(Nc2ccc(S(=O)(=O)CC3CO3)cc2)sc1C(=O)c1c(Cl)cccc1Cl` (stereo not shown) [DD(172)], the inhibition at 0.1 µM was 24%, the “% Inhib CDK4/D @ 1 μM” value came to 24.9% and the “% Inhib CDK4/D @ 0.03” value was −26%.

Broadly, the pKi is −log10 of the Ki, conventionally taken in molar units. On to `CSc1cccc(Nc2nc(N)c(C(=O)c3c(Cl)cccc3Cl)s2)c1` [R(3), 4-Amino-5-(2,6-dichlorobenzoyl)-2-(3-methylthio-phenylamino)-thiazole], for which, where the note is “apparent Ki, Rb fragment substrate”, the pKi was 7.13.

As for `CC(=O)OCCSc1ccc(Nc2nc(N)c(C(=O)c3c(Cl)cccc3Cl)s2)cc1` [DD(37)], the inhibition at 0.1 µM stood at 30%, the inhibition at 1 µM was 74.3% and the inhibition at 0.03 µM came out at 13%.

In the case of `C=CCC[S+]([O-])c1ccc(Nc2nc(N)c(C(=O)c3c(Cl)cccc3Cl)s2)cc1` (stereo not shown) [DD(86)], the inhibition at 0.1 µM stood at 36%, the inhibition at 1 µM is 62.5% and the inhibition at 0.03 µM is -9.8%.

With `CCCS(=O)(=O)c1ccc(Nc2nc(N)c(C(=O)c3c(Cl)cccc3Cl)s2)cc1` [DD(185)], the inhibition at 0.1 µM worked out at 33%, the “% Inhib CDK4/D @ 1 μM” value was found to be 22.3% and the “% Inhib CDK4/D @ 0.03” value came out at 8.5%.

In the case of `Nc1nc(Nc2ccc(S(=O)(=O)CC3CNC(=O)O3)cc2)sc1C(=O)c1c(Cl)cccc1Cl` (stereo not shown) [DD(209)], the “% Inhib CDK4/D @ 0.1 μM” value came out at 8%, the “% Inhib CDK4/D @ 1 μM” value is −21% and the “% Inhib CDK4/D @ 0.03” value is on record as −10%.

For `C=CCCSc1cccc(Nc2nc(N)c(C(=O)c3c(Cl)cccc3Cl)s2)c1` [DD(46)], the inhibition at 0.1 µM was 39%, the inhibition at 1 µM was 50.7% and the inhibition at 0.03 µM was determined as 18%.

Take `CCC[S+]([O-])c1cccc(Nc2nc(N)c(C(=O)c3c(Cl)cccc3Cl)s2)c1` (stereo not shown) [DD(145)]: the inhibition at 0.1 µM stood at 32%, the inhibition at 1 µM came to 42.3% and the inhibition at 0.03 µM is 4.2%.

Regarding `CN1CCCC1CCS(=O)(=O)c1ccc(Nc2nc(N)c(C(=O)c3c(Cl)cccc3Cl)s2)cc1` (stereo not shown) [DD(179)], the inhibition at 0.1 µM was 24%, the “% Inhib CDK4/D @ 1 μM” value is reported as 9.4% and the “% Inhib CDK4/D @ 0.03” value was −1.1%.

On to `CN1CCCC(C[S+]([O-])c2ccc(Nc3nc(N)c(C(=O)c4c(Cl)cccc4Cl)s3)cc2)C1` (stereo not shown) [DD(107)], for which the inhibition at 0.1 µM was determined as 28%, the inhibition at 1 µM is 47.3% and the inhibition at 0.03 µM was -11%.

`Nc1nc(Nc2cccc(SCc3ccncc3)c2)sc1C(=O)c1c(Cl)cccc1Cl` [DD(75)]: the inhibition at 0.1 µM came to 29%, the inhibition at 1 µM amounted to 66.5% and the inhibition at 0.03 µM was 18%.

Turning to `Cc1noc(C)c1C[S+]([O-])c1cccc(Nc2nc(N)c(C(=O)c3c(Cl)cccc3Cl)s2)c1` (stereo not shown) [DD(122)], the inhibition at 0.1 µM turned out to be 40%, the inhibition at 1 µM came to 54.3% and the inhibition at 0.03 µM came out at 16%.

As for `Nc1nc(Nc2ccc(S(=O)(=O)CCN3CCCC3)cc2)sc1C(=O)c1c(Cl)cccc1Cl` [DD(167)], the “% Inhib CDK4/D @ 0.1 μM” value came to 17%, the “% Inhib CDK4/D @ 1 μM” value amounted to 0.8% and the “% Inhib CDK4/D @ 0.03” value is recorded as −2.5%.

As for `COCCS(=O)(=O)c1ccc(Nc2nc(N)c(C(=O)c3c(Cl)cccc3Cl)s2)cc1` [DD(214)], the “% Inhib CDK4/D @ 0.1 μM” value came to 29%, the “% Inhib CDK4/D @ 1 μM” value is listed as 60.6% and the “% Inhib CDK4/D @ 0.03” value is −10%.

For `Nc1nc(Nc2ccc(SCc3ncon3)cc2)sc1C(=O)c1c(Cl)cccc1Cl` [DD(8)], the inhibition at 0.1 µM came out at 43%, the inhibition at 1 µM is 82.1% and the inhibition at 0.03 µM stood at 16%.

As to `Nc1nc(Nc2ccc(S(=O)(=O)CC(=O)Nc3ccccc3)cc2)sc1C(=O)c1c(Cl)cccc1Cl` [DD(175)], the inhibition at 0.1 µM is 23%, the “% Inhib CDK4/D @ 1 μM” value came out at 12.4% and the “% Inhib CDK4/D @ 0.03” value is recorded as −14%.

For the compound `CCOCCSc1cccc(Nc2nc(N)c(C(=O)c3c(Cl)cccc3Cl)s2)c1` [DD(73)], the inhibition at 0.1 µM turned out to be 31%, the inhibition at 1 µM turned out to be 73.7% and the inhibition at 0.03 µM worked out at 11%.

For `Nc1nc(Nc2ccc([S+]([O-])CC(=O)Nc3ccccc3)cc2)sc1C(=O)c1c(Cl)cccc1Cl` (stereo not shown) [DD(95)], the inhibition at 0.1 µM turned out to be 55%, the inhibition at 1 µM worked out at 80.7% and the inhibition at 0.03 µM is 5.3%.

As for `CN(C)CCC[S+]([O-])c1ccc(Nc2nc(N)c(C(=O)c3c(Cl)cccc3Cl)s2)cc1` (stereo not shown) [DD(90)], the inhibition at 0.1 µM stood at 44%, the inhibition at 1 µM is 70.2% and the inhibition at 0.03 µM is -4.9%.

With `CN(C)CCCS(=O)(=O)c1ccc(Nc2nc(N)c(C(=O)c3c(Cl)cccc3Cl)s2)cc1` [DD(170)], the inhibition at 0.1 µM was found to be 18%, the inhibition at 1 µM was found to be 25.8% and the inhibition at 0.03 µM amounted to 22%.

Regarding `COCCS(=O)(=O)c1ccc(Nc2nc(N)c(C(=O)c3c(Cl)cccc3Cl)s2)cc1` [DD(174)], the inhibition at 0.1 µM amounted to 24%, the “% Inhib CDK4/D @ 1 μM” value is recorded as 24.6% and the “% Inhib CDK4/D @ 0.03” value is −16%.

`COC(=O)C[S+]([O-])c1ccc(Nc2nc(N)c(C(=O)c3c(Cl)cccc3Cl)s2)cc1` (stereo not shown) [DD(106)]: the inhibition at 0.1 µM came out at 45%, the inhibition at 1 µM was determined as 66.8% and the inhibition at 0.03 µM was 1.7%.

As to `CC(C)CCC[S+]([O-])c1cccc(Nc2nc(N)c(C(=O)c3c(Cl)cccc3Cl)s2)c1` (stereo not shown) [DD(150)], the inhibition at 0.1 µM amounted to 21%, the inhibition at 1 µM came out at 10.4% and the inhibition at 0.03 µM amounted to 5.6%.

As to `Nc1nc(Nc2ccc(SCCN3CCCC3)cc2)sc1C(=O)c1c(Cl)cccc1Cl` [DD(7)], the inhibition at 0.1 µM worked out at 31%, the inhibition at 1 µM turned out to be 55% and the inhibition at 0.03 µM was 11%.

On to `Nc1nc(Nc2ccc([S+]([O-])CC3CCCO3)cc2)sc1C(=O)c1c(Cl)cccc1Cl` (stereo not shown) [DD(98)], for which the inhibition at 0.1 µM was 21%, the inhibition at 1 µM is 45.4% and the inhibition at 0.03 µM is -12%.

Regarding `Nc1nc(Nc2ccc(S(=O)(=O)CCN3CCOCC3)cc2)sc1C(=O)c1c(Cl)cccc1Cl` [DD(239)], the “% Inhib CDK4/D @ 0.1 μM” value came out at 27%, the “% Inhib CDK4/D @ 1 μM” value is listed as 8% and the “% Inhib CDK4/D @ 0.03” value is listed as 12%.

In the case of `COc1cccc(CS(=O)(=O)c2ccc(Nc3nc(N)c(C(=O)c4c(Cl)cccc4Cl)s3)cc2)c1` [DD(217)], the “% Inhib CDK4/D @ 0.1 μM” value is 39%, the “% Inhib CDK4/D @ 1 μM” value was −21% and the “% Inhib CDK4/D @ 0.03” value is reported as −8%.

Consider `CC(C)CCOC(=O)C[S+]([O-])c1ccc(Nc2nc(N)c(C(=O)c3c(Cl)cccc3Cl)s2)cc1` (stereo not shown) [DD(111)], for which the inhibition at 0.1 µM amounted to 32%, the inhibition at 1 µM was 64.8% and the inhibition at 0.03 µM is -1.7%.

With `COc1cccc(CSc2cccc(Nc3nc(N)c(C(=O)c4c(Cl)cccc4Cl)s3)c2)c1` [DD(57)], the inhibition at 0.1 µM was -9%, the inhibition at 1 µM is 24.6% and the inhibition at 0.03 µM was -14%.

Consider `NC(=O)CSc1ccc(Nc2nc(N)c(C(=O)c3c(Cl)cccc3Cl)s2)cc1` [DD(21)], for which the inhibition at 0.1 µM stood at 67%, the inhibition at 1 µM amounted to 85.5% and the inhibition at 0.03 µM amounted to 50%.

In the case of `Nc1nc(Nc2ccc(S(=O)(=O)CCCO)cc2)sc1C(=O)c1c(Cl)cccc1Cl` [DD(165)], the “% Inhib CDK4/D @ 0.1 μM” value came out at 10%, the “% Inhib CDK4/D @ 1 μM” value amounted to 34.3% and the “% Inhib CDK4/D @ 0.03” value was −1.8%.

These data come from patent US20040176431A1, “Antiproliferative 2-(sulfo-phenyl)-aminothiazole derivatives and pharmaceutical compositions, and methods for their use” (Pfizer, Inc., priority 2003, published 2004).
